Test results reported in ChEMBL document CHEMBL1201862, “PubChem BioAssay data set” (2004).
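Method: 48-hour compound exposure of cells in 96-well plates, five concentrations, linear interpolation of endpoints. GI50 marks 50% less growth.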 Active and inactive are the calls of the source. No stated cut-off is given here; in the data, active = GI50 up to about 1.1 µM and inactive = higher.

How the values were obtained:
Assay in all cases: NCI-60 cell line screen, 48 h
[1] = tested on: 786-0
[2] = tested on: OVCAR-4
[3] = tested on: BT-549
[4] = tested on: CCRF-CEM
[5] = tested on: DU-145
[6] = tested on: ACHN
[7] = tested on: SK-MEL-28
[8] = tested on: T47D
[9] = tested on: RXF 393
[10] = tested on: U-251
[11] = tested on: LOX IMVI
[12] = tested on: EKVX
[13] = tested on: SW-620
[14] = tested on: MDA-MB-231
[15] = tested on: Hs-578T
[16] = tested on: NCI/ADR-RES
[17] = tested on: UACC-257
[18] = tested on: HCT-15
[19] = tested on: A498

Compound | GI50 [1] | GI50 [2] | GI50 [3] | GI50 [4] | GI50 [5] | GI50 [6] | GI50 [7] | GI50 [8] | GI50 [9] | GI50 [10] | GI50 [11] | GI50 [12] | GI50 [13] | GI50 [14] | GI50 [15] | GI50 [16] | GI50 [17] | GI50 [18] [µM] | GI50 [19]
Nc1nccc(-c2c[nH]c3cc(Br)ccc23)n1 [MERIDIANIN D] | 21.5 µM (inactive) | 48.9 µM (inactive) | 31.2 µM (inactive) | 41.1 µM (inactive) | 34.5 µM (inactive) | 19.8 µM (inactive) | 30.5 µM (inactive) | 30.4 µM (inactive) | 15.5 µM (inactive) | 30.8 µM (inactive) | 25.3 µM (inactive) | 1.59 µM (inactive) | 33.3 µM (inactive) | 33.2 µM (inactive) | 25.9 µM (inactive) | 30.8 µM (inactive) | 30.2 µM (inactive) | 25.1 | 
COC(=O)C(=O)C(C(=O)C(=O)Nc1nc2ccc(C)cc2s1)c1nc2ccc([N+](=O)[O-])cc2nc1O (stereo unspecified) | > 100 µM (inactive) | > 10 µM (inactive) | > 100 µM (inactive) | > 100 µM (inactive) |  | > 100 µM (inactive) | > 100 µM (inactive) | > 100 µM (inactive) | > 100 µM (inactive) | > 100 µM (inactive) | > 100 µM (inactive) | 68.4 µM (inactive) | > 100 µM (inactive) | > 100 µM (inactive) | 93.1 µM (inactive) | > 100 µM (inactive) | > 100 µM (inactive) | > 100 | > 100 µM (inactive)
O=C(O)c1ccc(/C=N\N(CCO)C2=NCCN2)cc1 | > 100 µM (inactive) | > 100 µM (inactive) | > 100 µM (inactive) | > 100 µM (inactive) | > 100 µM (inactive) | > 100 µM (inactive) | > 100 µM (inactive) | > 100 µM (inactive) | > 100 µM (inactive) | > 100 µM (inactive) | > 100 µM (inactive) | > 100 µM (inactive) | > 100 µM (inactive) | > 100 µM (inactive) | > 100 µM (inactive) |  |  | > 100 | 
Nc1cc(C(=O)O)nc(O)n1 | > 100 µM (inactive) | > 100 µM (inactive) | > 100 µM (inactive) | > 100 µM (inactive) | > 100 µM (inactive) | > 100 µM (inactive) | > 100 µM (inactive) |  | > 100 µM (inactive) | > 100 µM (inactive) | > 100 µM (inactive) | > 100 µM (inactive) | > 100 µM (inactive) | > 100 µM (inactive) | > 100 µM (inactive) | > 100 µM (inactive) | > 100 µM (inactive) | > 100 | > 100 µM (inactive)
N#C/C(=C\c1ccc(Cl)cc1)c1nc(-c2cc3ccccc3oc2=O)cs1 | 30.3 µM (inactive) | 33.5 µM (inactive) | 14.9 µM (inactive) | > 100 µM (inactive) | 48.5 µM (inactive) | 38.2 µM (inactive) | 95.9 µM (inactive) | 44 µM (inactive) | 83 µM (inactive) | 30.8 µM (inactive) | 59.6 µM (inactive) | > 100 µM (inactive) | > 100 µM (inactive) | 22 µM (inactive) | 8.87 µM (inactive) | 39.6 µM (inactive) | 47.6 µM (inactive) | > 100 | 
COC(=O)C1(O)c2ccccc2N=C2C(=O)c3ccccc3N21 (stereo unspecified) [METHYLISATOID] | > 100 µM (inactive) | > 100 µM (inactive) | > 100 µM (inactive) | > 100 µM (inactive) | > 100 µM (inactive) | > 100 µM (inactive) | > 100 µM (inactive) |  | > 100 µM (inactive) | > 100 µM (inactive) | 59.7 µM (inactive) | > 100 µM (inactive) | > 100 µM (inactive) | 41.6 µM (inactive) | > 100 µM (inactive) | > 100 µM (inactive) | 23.8 µM (inactive) | > 100 | > 100 µM (inactive)
COCCOCCOCCC(=O)NC1CC2CCC1(C)C2(C)C (stereo unspecified) | > 100 µM (inactive) | > 100 µM (inactive) | > 100 µM (inactive) | > 100 µM (inactive) | > 100 µM (inactive) | > 100 µM (inactive) | > 100 µM (inactive) |  | > 100 µM (inactive) | > 100 µM (inactive) | > 100 µM (inactive) | > 100 µM (inactive) | > 100 µM (inactive) | > 100 µM (inactive) | > 100 µM (inactive) | > 100 µM (inactive) | > 100 µM (inactive) | > 100 | > 100 µM (inactive)
COc1ccc(C(=O)N2CCN(c3ccc4c(c3)OCC(=O)N4)CC2)cc1 | > 100 µM (inactive) | > 100 µM (inactive) | > 100 µM (inactive) | > 100 µM (inactive) | > 100 µM (inactive) | > 100 µM (inactive) | > 100 µM (inactive) | > 100 µM (inactive) |  | > 100 µM (inactive) | > 100 µM (inactive) | 94 µM (inactive) | > 100 µM (inactive) | > 100 µM (inactive) | > 100 µM (inactive) | > 100 µM (inactive) | > 100 µM (inactive) | > 100 | 
CCOC(=O)c1c2c(n(Cc3ccccc3)c1C)C(=O)C(=O)c1ccccc1-2 | 0.56 µM (active) | 0.0794 µM (active) | 0.337 µM (active) | 0.134 µM (active) | 0.465 µM (active) | 0.275 µM (active) | 0.177 µM (active) | 0.579 µM (active) | 0.703 µM (active) | 0.263 µM (active) | 0.174 µM (active) | 0.726 µM (active) | 0.18 µM (active) | 0.351 µM (active) | 0.925 µM (active) | 0.466 µM (active) | 0.0989 µM (active) | 0.366 | 
O=C(CCCN1CCC2(CC1)NC(=O)c1ccccc1O2)c1ccc(F)cc1 | > 100 µM (inactive) | 91 µM (inactive) | 46.6 µM (inactive) | 90.4 µM (inactive) | > 100 µM (inactive) | > 100 µM (inactive) | > 100 µM (inactive) | 84.3 µM (inactive) | 64.7 µM (inactive) | > 100 µM (inactive) | 80 µM (inactive) | > 100 µM (inactive) | > 100 µM (inactive) | > 100 µM (inactive) | 96.8 µM (inactive) | > 100 µM (inactive) | 55.5 µM (inactive) | > 100 | 
C[n+]1cn(C2=C([N-]S(=O)(=O)c3ccccc3)C(=O)c3ccccc3C2=O)c2ccccc21 | 48.4 µM (inactive) | 1.59 µM (inactive) | 20.9 µM (inactive) | 39.6 µM (inactive) | 52.7 µM (inactive) | > 100 µM (inactive) | 36.1 µM (inactive) | 34.1 µM (inactive) | 20.3 µM (inactive) | 19.3 µM (inactive) | 12.7 µM (inactive) | > 100 µM (inactive) | 28.6 µM (inactive) | 20.1 µM (inactive) | 41.9 µM (inactive) | > 100 µM (inactive) | 19.4 µM (inactive) | > 100 | 
CC1(C)OCC2OC3(c4nc(C#N)c(N)o4)OC(C)(C)OC3C2O1 (stereo unspecified) | > 100 µM (inactive) | > 100 µM (inactive) | > 100 µM (inactive) | > 100 µM (inactive) | > 100 µM (inactive) | > 100 µM (inactive) | > 100 µM (inactive) | > 100 µM (inactive) |  | > 100 µM (inactive) | > 100 µM (inactive) | > 100 µM (inactive) | > 100 µM (inactive) | > 100 µM (inactive) | > 100 µM (inactive) | > 100 µM (inactive) | > 100 µM (inactive) | > 100 | > 100 µM (inactive)
C/C(=C1/N=C(c2ccccc2)OC1=O)c1ccc(C)cc1 | > 100 µM (inactive) | > 100 µM (inactive) | > 100 µM (inactive) | > 100 µM (inactive) | > 100 µM (inactive) | > 100 µM (inactive) | > 100 µM (inactive) | > 100 µM (inactive) | > 100 µM (inactive) | > 100 µM (inactive) | > 100 µM (inactive) | > 100 µM (inactive) | > 100 µM (inactive) | > 100 µM (inactive) | > 100 µM (inactive) |  | > 100 µM (inactive) | > 100 | > 100 µM (inactive)
C=C1CC=CC(C)(C)C1C/C=C(\C)C(O)CBr (stereo unspecified) | 28.6 µM (inactive) | 76 µM (inactive) | 97.3 µM (inactive) | 47.8 µM (inactive) | 45.4 µM (inactive) | 53.7 µM (inactive) | > 100 µM (inactive) |  | 26.7 µM (inactive) | 30.1 µM (inactive) | 19.1 µM (inactive) | > 100 µM (inactive) | 33.1 µM (inactive) | > 100 µM (inactive) | > 100 µM (inactive) | 19.2 µM (inactive) | 54.7 µM (inactive) | 51.1 | > 100 µM (inactive)
COC(=O)C1=C(O)C(C(=O)OC)[C@@]2(O)[C@@H](C(=O)OC)CC[C@@H]1[C@@H]2C(=O)OC (stereo partly specified) |  |  | 25.5 µM (inactive) | 25.2 µM (inactive) | 44.7 µM (inactive) | 39.2 µM (inactive) | 27.9 µM (inactive) | 54.2 µM (inactive) | 12.2 µM (inactive) | 22.3 µM (inactive) | 21.3 µM (inactive) | 23 µM (inactive) |  | 25.1 µM (inactive) | 11.1 µM (inactive) |  | 27.4 µM (inactive) | 20.6 | 16.5 µM (inactive)
COc1cc(S(=O)(=O)N/N=C/C=C/c2ccccc2)c(OC)cc1NC(C)=O | 91.8 µM (inactive) | 19.6 µM (inactive) | 42.1 µM (inactive) | 69.5 µM (inactive) | 31.8 µM (inactive) | > 100 µM (inactive) | 56.5 µM (inactive) | 69.5 µM (inactive) | 21.1 µM (inactive) |  | 15.5 µM (inactive) | 5.14 µM (inactive) | 25.4 µM (inactive) |  | 26.4 µM (inactive) | 9.59 µM (inactive) | 30.2 µM (inactive) | 19.5 | > 100 µM (inactive)
